Source: patent US12516064B2, “Tetrahydropyridopyrimidines and related analogs for inhibiting YAP/TAZ-TEAD” (THE KATHOLIEKE UNIVERSITEIT LEUVEN, priority 2022, dated 2026)

System: YAP/TAZ-TEAD transcription
Assay: Reporter gene assay for measuring the inhibition of YAP/TAZ-TEAD transcription
Assay type: cell-based
Conditions: Homo sapiens, HEK-293T; Hek293T cells transiently transfected with TEAD-responsive element luciferase reporter; 24 hours incubation
Method: Hek293T cells are cultured in DMEM supplemented with 10% fetal bovine serum, Sodium pyruvate, Sodium bicarbonate, L-glutamine. The cells are harvested and transiently transfected with TEAD-responsive element luciferase reporter. Transfected cells are plated in 384-wells plate containing pre-diluted compounds. After 24 hours incubation at 37° C./5% CO2, assay plates were cooled down to RT and levelled to an equal volume per well, prior to the addition of 25 uL luciferase substrate SteadyLite (Perkin Elmer)/well. The plate was shaken for 10 min at 600 rpm, centrifuged for 1 min at 500 rpm and measured with an Envision reader (PerkinElmer). The amount of relative light units produced by the TEAD reporter is used to calculated percent of inhibition.
The percent of reporter inhibition was calculated in the presence of a positive control inhibitor (100% inhibition) versus a condition with the presence of the vehicle basal activity of the reporter (0% inhibition). The ability of a test compound to inhibit this activity was determined as: Percentage inhibition=[1−((RLU determined in the presence of vehicle−RLU determined for sample with test compound present) divided by (RLU determined in the presence of vehicle−RLU determined for sample with positive control inhibitor))]*100 The activities of example compounds tested are depicted in Table 8. The activity ranges A, B and C refer to IC50 values in the reporter gene assay as follows: “A”: EC50<1 μM; “B”: 1 μM≤EC50≤3.0 μM and “C”: EC50>3.0 μM, NT=not tested.

| EC50 [µM] | Compound |
| --- | --- |
| > 3 | Cn1ccc(-c2nc(-c3ccccc3)nc3c2CN(S(C)(=O)=O)C3)n1 [Cpd. No. 16, 4-(1-methyl-1H-pyrazol-3-yl)-6-(methylsulfonyl)-2-phenyl-6,7-dihydro-5H-pyrrolo[3,4-d]pyrimidine] |
| < 1 | C=CC(=O)N1Cc2nc(Cc3ccccc3)nc(-c3ccn(Cc4cccnc4)n3)c2C1 [Cpd. No. 17, 1-(2-benzyl-4-(1-(pyridin-3-ylmethyl)-1H-pyrazol-3-yl)-5,7-dihydro-6H-pyrrolo[3,4-d]pyrimidin-6-yl)prop-2-en-1-one] |
| 1 to 3 | CCC(=O)N1Cc2nc(Cc3ccccc3)nc(-c3ccn(Cc4cccnc4)n3)c2C1 [Cpd. No. 18, 1-(2-benzyl-4-(1-(pyridin-3-ylmethyl)-1H-pyrazol-3-yl)-5,7-dihydro-6H-pyrrolo[3,4-d]pyrimidin-6-yl)propan-1-one] |
| 1 to 3 | CS(=O)(=O)N1Cc2nc(Cc3ccccc3)nc(-c3ccn(Cc4cccnc4)n3)c2C1 [Cpd. No. 19, 2-benzyl-6-(methylsulfonyl)-4-(1-(pyridin-3-ylmethyl)-1H-pyrazol-3-yl)-6,7-dihydro-5H-pyrrolo[3,4-d]pyrimidine] |
| 1 to 3 | CCC(=O)N1Cc2nc(Cc3ccccc3)nc(-c3ccn(C)n3)c2C1 [Cpd. No. 21, 1-(2-benzyl-4-(1-methyl-1H-pyrazol-3-yl)-5,7-dihydro-6H-pyrrolo[3,4-d]pyrimidin-6-yl)propan-1-one] |
| > 3 | Cn1ccc(-c2nc(Cc3ccccc3)nc3c2CN(S(C)(=O)=O)C3)n1 [Cpd. No. 22, 2-benzyl-4-(1-methyl-1H-pyrazol-3-yl)-6-(methylsulfonyl)-6,7-dihydro-5H-pyrrolo[3,4-d]pyrimidine] |
| < 1 | C=CC(=O)N1Cc2nc(-c3ccccc3)nc(-c3ccn(Cc4cccnc4)n3)c2C1 [Cpd. No. 23, 1-(2-phenyl-4-(1-(pyridin-3-ylmethyl)-1H-pyrazol-3-yl)-5,7-dihydro-6H-pyrrolo[3,4-d]pyrimidin-6-yl)prop-2-en-1-one] |
| 1 to 3 | CCC(=O)N1Cc2nc(-c3ccccc3)nc(-c3ccn(Cc4cccnc4)n3)c2C1 [Cpd. No. 24, 1-(2-phenyl-4-(1-(pyridin-3-ylmethyl)-1H-pyrazol-3-yl)-5,7-dihydro-6H-pyrrolo[3,4-d]pyrimidin-6-yl)propan-1-one] |
| 1 to 3 | CS(=O)(=O)N1Cc2nc(-c3ccccc3)nc(-c3ccn(Cc4cccnc4)n3)c2C1 [Cpd. No. 25, 6-(methylsulfonyl)-2-phenyl-4-(1-(pyridin-3-ylmethyl)-1H-pyrazol-3-yl)-6,7-dihydro-5H-pyrrolo[3,4-d]pyrimidine] |
| > 3 | CC(=O)NCC(=O)N1Cc2nc(-c3ccccc3)nc(-c3ccn(Cc4cccnc4)n3)c2C1 [Cpd. No. 26, N-(2-oxo-2-(2-phenyl-4-(1-(pyridin-3-ylmethyl)-1H-pyrazol-3-yl)-5,7-dihydro-6H-pyrrolo[3,4-d]pyrimidin-6-yl)ethyl)acetamide] |
| > 3 | CC(=O)NCC(=O)N1Cc2nc(Cc3ccccc3)nc(-c3ccn(Cc4cccnc4)n3)c2C1 [Cpd. No. 27, N-(2-(2-benzyl-4-(1-(pyridin-3-ylmethyl)-1H-pyrazol-3-yl)-5,7-dihydro-6H-pyrrolo[3,4-d]pyrimidin-6-yl)-2-oxoethyl)acetamide] |
| > 3 | CS(=O)(=O)NCC(=O)N1Cc2nc(Cc3ccccc3)nc(-c3ccn(Cc4cccnc4)n3)c2C1 [Cpd. No. 28, N-(2-(2-benzyl-4-(1-(pyridin-3-ylmethyl)-1H-pyrazol-3-yl)-5,7-dihydro-6H-pyrrolo[3,4-d]pyrimidin-6-yl)-2-oxoethyl)methanesulfonamide] |
| 1 to 3 | CNS(=O)(=O)CCN1Cc2nc(-c3ccccc3)nc(-c3ccn(Cc4cccnc4)n3)c2C1 [Cpd. No. 31, N-methyl-2-(2-phenyl-4-(1-(pyridin-3-ylmethyl)-1H-pyrazol-3-yl)-5,7-dihydro-6H-pyrrolo[3,4-d]pyrimidin-6-yl)ethane-1-sulfonamide] |
| > 3 | CCC(=O)N1CCc2c(nc(Cc3ccccc3)nc2-c2ccn(C)n2)C1 [Cpd. No. 33, 1-(2-benzyl-4-(1-methyl-1H-pyrazol-3-yl)-5,8-dihydropyrido[3,4-d]pyrimidin-7(6H)-yl)propan-1-one] |
| > 3 | Cn1ccc(-c2nc(Cc3ccccc3)nc3c2CCN(S(C)(=O)=O)C3)n1 [Cpd. No. 34, 2-benzyl-4-(1-methyl-1H-pyrazol-3-yl)-7-(methylsulfonyl)-5,6,7,8-tetrahydropyrido[3,4-d]pyrimidine] |
| 1 to 3 | CCC(=O)N1CCc2c(nc(Cc3ccccc3)nc2-c2ccn(Cc3cccnc3)n2)C1 [Cpd. No. 36, 1-(2-benzyl-4-(1-(pyridin-3-ylmethyl)-1H-pyrazol-3-yl)-5,8-dihydropyrido[3,4-d]pyrimidin-7(6H)-yl)propan-1-one] |
| > 3 | CS(=O)(=O)N1CCc2c(nc(Cc3ccccc3)nc2-c2ccn(Cc3cccnc3)n2)C1 [Cpd. No. 37, 2-benzyl-7-(methylsulfonyl)-4-(1-(pyridin-3-ylmethyl)-1H-pyrazol-3-yl)-5,6,7,8-tetrahydropyrido[3,4-d]pyrimidine] |
| 1 to 3 | CCC(=O)N1CCc2c(nc(-c3ccccc3)nc2-c2ccn(C)n2)C1 [Cpd. No. 40, 1-(4-(1-methyl-1H-pyrazol-3-yl)-2-phenyl-5,8-dihydropyrido[3,4-d]pyrimidin-7(6H)-yl)propan-1-one] |
| < 1 | C=CC(=O)N1CCc2c(nc(Cc3ccc(F)cc3)nc2-c2ccn(C)n2)C1 [Cpd. No. 41, 1-(2-(4-fluorobenzyl)-4-(1-methyl-1H-pyrazol-3-yl)-5,8-dihydropyrido[3,4-d]pyrimidin-7(6H)-yl)prop-2-en-1-one] |
| > 3 | CCC(=O)N1CCc2c(nc(Cc3ccc(F)cc3)nc2-c2ccn(C)n2)C1 [Cpd. No. 42, 1-(2-(4-fluorobenzyl)-4-(1-methyl-1H-pyrazol-3-yl)-5,8-dihydropyrido[3,4-d]pyrimidin-7(6H)-yl)propan-1-one] |
| > 3 | CCC(=O)N1CCc2c(nc(Cc3cccc(F)c3)nc2-c2ccn(C)n2)C1 [Cpd. No. 44, 1-(2-(3-fluorobenzyl)-4-(1-methyl-1H-pyrazol-3-yl)-5,8-dihydropyrido[3,4-d]pyrimidin-7(6H)-yl)propan-1-one] |
| < 1 | C=CC(=O)N1CCc2c(nc(Cc3ccc(C(F)(F)F)cc3)nc2-c2ccn(C)n2)C1 [Cpd. No. 45, 1-(4-(1-methyl-1H-pyrazol-3-yl)-2-(4-(trifluoromethyl)benzyl)-5,8-dihydropyrido[3,4-d]pyrimidin-7(6H)-yl)prop-2-en-1-one] |
| > 3 | CCC(=O)N1CCc2c(nc(Cc3ccc(C(F)(F)F)cc3)nc2-c2ccn(C)n2)C1 [Cpd. No. 47, 1-(4-(1-methyl-1H-pyrazol-3-yl)-2-(4-(trifluoromethyl)benzyl)-5,8-dihydropyrido[3,4-d]pyrimidin-7(6H)-yl)propan-1-one] |
| 1 to 3 | CCC(=O)N1CCc2c(nc(Cc3cccc(C(F)(F)F)c3)nc2-c2ccn(C)n2)C1 [Cpd. No. 48, 1-(4-(1-methyl-1H-pyrazol-3-yl)-2-(3-(trifluoromethyl)benzyl)-5,8-dihydropyrido[3,4-d]pyrimidin-7(6H)-yl)propan-1-one] |
| < 1 | C=CC(=O)N1CCc2c(nc(Cc3cccc(C(F)(F)F)c3)nc2-c2ccn(Cc3cccnc3)n2)C1 [Cpd. No. 50, 1-(4-(1-(pyridin-3-ylmethyl)-1H-pyrazol-3-yl)-2-(3-(trifluoromethyl)benzyl)-5,8-dihydropyrido[3,4-d]pyrimidin-7(6H)-yl)prop-2-en-1-one] |
| < 1 | C=CC(=O)N1CCc2c(nc(-c3ccccc3)nc2-c2cnn(C)c2)C1 [Cpd. No. 56] |
| 1 to 3 | C=CC(=O)N1CCc2c(nc(-c3ccccc3)nc2-c2cnn(C(C)C)c2)C1 [Cpd. No. 57, 1-(4-(1-isopropyl-1H-pyrazol-4-yl)-2-phenyl-5,8-dihydropyrido[3,4-d]pyrimidin-7(6H)-yl)prop-2-en-1-one] |
| 1 to 3 | C=CC(=O)N1CCc2c(nc(-c3ccccc3)nc2C(=O)NCc2cccnc2)C1 [Cpd. No. 58, 7-acryloyl-2-phenyl-N-(pyridin-3-ylmethyl)-5,6,7,8-tetrahydropyrido[3,4-d]pyrimidine-4-carboxamide] |
| < 1 | C=CC(=O)N1CCc2c(nc(-c3ccccc3)nc2-c2ccn(CC)n2)C1 [Cpd. No. 59, 1-(4-(1-ethyl-1H-pyrazol-3-yl)-2-phenyl-5,8-dihydropyrido[3,4-d]pyrimidin-7(6H)-yl)prop-2-en-1-one] |
| < 1 | C=CC(=O)N1CCc2c(nc(-c3ccccc3)nc2-c2ccn(C(C)C)n2)C1 [Cpd. No. 60, 1-(4-(1-isopropyl-1H-pyrazol-3-yl)-2-phenyl-5,8-dihydropyrido[3,4-d]pyrimidin-7(6H)-yl)prop-2-en-1-one] |

| Compound | EC50 [µM] |
| --- | --- |
| O=S(=O)(F)CCN1Cc2nc(-c3ccccc3)nc(-c3ccn(Cc4cccnc4)n3)c2C1 [Cpd. No. 29, 2-(2-phenyl-4-(1-(pyridin-3-ylmethyl)-1H-pyrazol-3-yl)-5,7-dihydro-6H-pyrrolo[3,4-d]pyrimidin-6-yl)ethane-1-sulfonyl fluoride] | > 3 |
| O=S(=O)(F)CCN1Cc2nc(Cc3ccccc3)nc(-c3ccn(Cc4cccnc4)n3)c2C1 [Cpd. No. 30, 2-(2-benzyl-4-(1-(pyridin-3-ylmethyl)-1H-pyrazol-3-yl)-5,7-dihydro-6H-pyrrolo[3,4-d]pyrimidin-6-yl)ethane-1-sulfonyl fluoride] | > 3 |
